Columns and labels:
[1] = system: LXR; assay: In vitro transactivation assay in CV-1 cells, antagonism of T0901317-induced Gal-LXR activation; assay type: cell-based; settings: at 10 μM, with 1 μM agonist T0901317, dose-dependent
Source text: (§1) In vitro screens such as the transactivation assay can be used to measure the ability of a compound to inhibit a nuclear receptor regulating lipid or carbohydrate uptake, synthesis or metabolism. In the assay described herein compounds can be identified that can inhibit activation of the following nuclear receptors: LXR, PPARα, PPARγ and FXR. This activity can be useful to treat lipid disorders such as hypercholesteremia and obesity.
(§2) Cell line: Kidney Green Monkey CV-1 cells.
(§3) Growing culturing medium: Dulbecco's modified Eagle's medium (DMEM) supplememnted with 10% fetal calf serum (FCS).
(§4) Procedure: CV-1 cells were plated in 48 well-plate culture plates, at a density of 10,000 cells/well, 24 h prior to transfection. One to three hours before transfection, cells were fed with fresh medium. A modified calcium phosphate precipitation procedure was used for transient transfection (Pfahl, M. et al., 1990, Methods in Enzymology 189: 256).
(§5) Typically, 40 ng reporter plasmid and 20 ng of each receptor expression vector were mixed, together with 10 ng of β-galactosidase control plasmid (pCH110, Pharmacia, Piscataway, N.J.) and Bluescript plasmid to obtain a total of 400 ng DNA per well. To this mixture 1 μl of 2.5M CaCl2 and 10 μl of BBS buffer, pH 6.95, were added afterward. […]

[2] = Oral treatment of hypercholesterolemia in Sprague Dawley rats on a high cholesterol atherogenic diet (serum cholesterols); assay type: in vivo; settings: 20 mg/kg once daily by oral gavage for five days
Protocol: Six week-old male Sprague Dawley rats (HSD, Harlan) were housed in a fixed 12–12-hr artificial light-dark cycle, and maintained on a high cholesterol, atherogenic diet ad libitum (# C13002, Research Diets, New Jersey).
Animals were maintained on this diet throughout the course of the study.
Following six days of maintenance on the high cholesterol diet, the animals were bled from the tail vein (100–200 μL of whole blood) and serum levels of total cholesterol were measured in duplicate (Infinity Cholesterol Kit; Sigma, St. Louis, Mo.). Based on these initial measures, animals were sorted into groups with approximately the same average serum cholesterol levels. Once sorted, the animals were housed three per cage and maintained on the high cholesterol diet ad libitum.
Treatment groups (n=6/group): • 1) High cholesterol fed control (sesame oil) • 2) Compound 7 (20 mg/kg; once daily)
Compound 7 was mixed in sesame oil, and administered to animals in a volume of 3 mL/kg/dose. Compound 7 was administered by oral gavage daily for five consecutive days.
To monitor the effect of Compound 7, animals were bled from the tail vein five days after commencement of oral treatment. Serum cholesterols were measured in duplicate. The blood is kept at room temperature to allow coagulation, after which the serum is separated and assayed for total cholesterol (see FIG. 1), high density lipoprotein cholesterol (see FIG. 2) and low density lipoprotein cholesterol levels (see FIG. 3). […] Similarly, Compound 7 reduced LDL cholesterol levels compared to controls (ANOVA, Fisher's Least significant difference test, p≦0.01). Finally, Compound 7 increased HDL cholesterol levels compared to controls (ANOVA, Fisher's Least significant difference test, p<0.01).

[3] = molecular target: T1, PPARγ (Homo sapiens, UniProt P37231); assay: In vitro transactivation assay in CV-1 cells, antagonism of BRL49653-induced Gal-PPARγ activation; assay type: cell-based; settings: with 1 μM agonist BRL49653, dose-dependent
T1 construct: expressed in transfected cells; host or cells: CV-1 (green monkey kidney) cells, transient calcium phosphate transfection
T1 sequence (P37231 238-503 limits assumed): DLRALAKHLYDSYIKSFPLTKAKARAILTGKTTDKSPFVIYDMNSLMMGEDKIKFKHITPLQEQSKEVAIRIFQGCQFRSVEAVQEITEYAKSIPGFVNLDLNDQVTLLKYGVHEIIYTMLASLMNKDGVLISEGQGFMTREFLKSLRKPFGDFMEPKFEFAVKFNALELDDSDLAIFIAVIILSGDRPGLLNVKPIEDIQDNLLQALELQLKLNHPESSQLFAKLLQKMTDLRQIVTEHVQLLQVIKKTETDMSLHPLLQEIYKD
Source text: as §1, §2, §3, §4, §5

inhibition at 10 µM [3]: 80 to 90%
Compound: CN(C)c1cc2c(cc1-c1ccc3cc(/C=C4\SC(=S)N(CC(=O)O)C4=O)ccc3c1)C(C)(C)CCC2(C)C [Compound 7, {5-[6-(3-Dimethylamino-5,5,8,8-tetramethyl-5,6,7,8-tetrahydro-naphthalen-2-yl)-naphthalen-2-ylmethylene]-4-oxo-2-thioxo-thiazolidin-3-yl}-acetic acid]
inhibition of T0901317-induced LXR activation [1]: 80–90% | HDL cholesterol levels compared to controls ([2]; p<0.01): increased | LDL cholesterol levels compared to controls ([2]; p≦0.01): reduced | total serum cholesterol compared to control animals ([2]; p≦0.01): significantly reduced
